Experiments:
[1] = test system: Proto-oncogene tyrosine-protein kinase receptor Ret (Homo sapiens), P07949 [M918T]; settings: at 10 µM
[2] = target: Tyrosine-protein kinase Yes (Homo sapiens) (UniProt P07947); experiment: Selectivity interaction (Ambit KINOMEscan and KiNATiv profiling in Jurkat cells) EUB0000090b YES1; type: cell-based; settings: at 1 µM
[3] = target: 1-phosphatidylinositol 3-phosphate 5-kinase (Homo sapiens) (UniProt Q9Y2I7); experiment: Selectivity interaction (ActivX KiNativ screen (kinase selectivity in THP-1 cell lysates)) EUB0000639a PIKFYVE; type: subcellular; settings: lysate
[4] = target: Dual specificity protein kinase CLK4 (Homo sapiens, UniProt Q9HAZ1); experiment: Selectivity interaction (KinomeScan (DiscoverX)) EUB0001550a CLK4; settings: at 1 µM
[5] = target: T1, Discoidin domain-containing receptor 2 (Homo sapiens) (UniProt Q16832); settings: at 10 µM
T1 sequence (whole entry): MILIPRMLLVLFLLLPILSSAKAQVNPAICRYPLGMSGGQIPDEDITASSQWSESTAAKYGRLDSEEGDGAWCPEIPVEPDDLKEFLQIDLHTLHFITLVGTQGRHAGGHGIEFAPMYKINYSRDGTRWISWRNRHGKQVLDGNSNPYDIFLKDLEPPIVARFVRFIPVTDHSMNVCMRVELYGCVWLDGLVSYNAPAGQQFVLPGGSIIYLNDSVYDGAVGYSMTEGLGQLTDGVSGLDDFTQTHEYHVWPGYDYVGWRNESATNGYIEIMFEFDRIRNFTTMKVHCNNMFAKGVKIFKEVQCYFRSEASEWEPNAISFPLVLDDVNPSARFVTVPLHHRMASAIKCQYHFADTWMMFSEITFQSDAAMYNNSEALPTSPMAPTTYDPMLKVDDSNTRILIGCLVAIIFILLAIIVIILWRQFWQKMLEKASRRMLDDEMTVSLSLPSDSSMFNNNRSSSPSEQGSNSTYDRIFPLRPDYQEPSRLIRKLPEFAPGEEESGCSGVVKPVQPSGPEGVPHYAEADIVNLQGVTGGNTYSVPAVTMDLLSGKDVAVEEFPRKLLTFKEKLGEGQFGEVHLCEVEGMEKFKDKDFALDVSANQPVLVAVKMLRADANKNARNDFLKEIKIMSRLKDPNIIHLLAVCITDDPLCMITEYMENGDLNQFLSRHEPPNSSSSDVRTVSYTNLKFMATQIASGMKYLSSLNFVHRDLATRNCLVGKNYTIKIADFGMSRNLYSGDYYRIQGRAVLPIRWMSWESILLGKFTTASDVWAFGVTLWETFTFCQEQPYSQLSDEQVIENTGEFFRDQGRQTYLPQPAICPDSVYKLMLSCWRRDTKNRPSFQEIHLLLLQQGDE

[6] = target: Phosphatidylinositol 4,5-bisphosphate 3-kinase catalytic subunit beta isoform (Homo sapiens) (UniProt P42338); experiment: Selectivity interaction (KinomeScan (DiscoverX)) EUB0000595a PIK3CB; settings: at 10 µM
[7] = target: Serine/threonine-protein kinase PLK1 (Homo sapiens, UniProt P53350); experiment: Selectivity interaction (KinomeScan (DiscoverX)) EUB0000595a PLK1; settings: at 10 µM
[8] = test system: Tyrosine-protein kinase ABL1 (Homo sapiens), P00519 [H396P]; experiment: Selectivity interaction (KinomeScan (DiscoverX)) EUB0000229b ABL1; settings: at 1 µM
[9] = target: Dual specificity mitogen-activated protein kinase kinase 2 (Homo sapiens) (UniProt P36507); experiment: Selectivity interaction (KinomeScan (DiscoverX)) EUB0001079a MAP2K2; settings: at 1 µM
[10] = target: NT-3 growth factor receptor (Homo sapiens, UniProt Q16288); experiment: Selectivity interaction (ProQinase) EUB0000171b NTRK3
[11] = Selectivity interaction (KinomeScan (DiscoverX)) EUB0000092b PKNB; settings: at 10 µM
[12] = target: T2, Dual specificity protein kinase TTK (Homo sapiens) (UniProt P33981); experiment: Selectivity interaction (KinomeScan (DiscoverX)) EUB0000045b TTK
T2 sequence (whole entry): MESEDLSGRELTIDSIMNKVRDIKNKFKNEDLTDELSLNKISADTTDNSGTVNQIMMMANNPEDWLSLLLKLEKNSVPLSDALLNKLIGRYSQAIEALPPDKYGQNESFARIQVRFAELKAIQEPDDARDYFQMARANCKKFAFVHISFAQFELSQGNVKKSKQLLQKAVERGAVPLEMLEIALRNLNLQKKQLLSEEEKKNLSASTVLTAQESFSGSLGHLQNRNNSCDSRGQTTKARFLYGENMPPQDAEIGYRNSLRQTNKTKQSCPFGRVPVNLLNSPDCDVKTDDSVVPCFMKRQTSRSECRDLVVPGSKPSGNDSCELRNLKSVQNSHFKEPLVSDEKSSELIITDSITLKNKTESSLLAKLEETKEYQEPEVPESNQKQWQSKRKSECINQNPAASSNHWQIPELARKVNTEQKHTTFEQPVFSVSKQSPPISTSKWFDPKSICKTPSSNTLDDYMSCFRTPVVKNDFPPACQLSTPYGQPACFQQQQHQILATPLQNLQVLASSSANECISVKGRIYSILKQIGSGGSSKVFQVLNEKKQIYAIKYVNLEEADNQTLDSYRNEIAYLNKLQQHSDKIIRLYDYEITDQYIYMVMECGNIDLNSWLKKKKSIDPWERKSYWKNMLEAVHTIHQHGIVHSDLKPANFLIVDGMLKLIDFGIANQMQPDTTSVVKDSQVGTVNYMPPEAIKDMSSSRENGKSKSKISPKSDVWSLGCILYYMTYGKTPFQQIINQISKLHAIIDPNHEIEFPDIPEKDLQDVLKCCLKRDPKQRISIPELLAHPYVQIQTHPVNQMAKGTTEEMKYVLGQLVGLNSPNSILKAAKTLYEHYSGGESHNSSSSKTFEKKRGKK

[13] = target: Phosphatidylinositol 4,5-bisphosphate 3-kinase catalytic subunit gamma isoform (Homo sapiens) (UniProt P48736); experiment: Selectivity interaction (KinomeScan (DiscoverX)) EUB0001619a PIK3CG; settings: at 1 µM
[14] = target: Serine/threonine-protein kinase 35 (Homo sapiens) (UniProt Q8TDR2); experiment: Selectivity interaction (KinomeScan (DiscoverX)) EUB0001619a STK35; settings: at 1 µM
[15] = target: Serine/threonine-protein kinase 26 (Homo sapiens, UniProt Q9P289); settings: PBMC, at 1 µM
[16] = target: Serine/threonine-protein kinase Nek4 (Homo sapiens) (UniProt P51957); experiment: Selectivity interaction (KinomeScan (DiscoverX)) EUB0000618a NEK4; settings: at 10 µM
[17] = target: Rho-associated protein kinase 1 (Homo sapiens) (UniProt Q13464); experiment: Selectivity interaction (KinomeScan (DiscoverX)) EUB0000618a ROCK1; settings: at 10 µM

1-phosphatidylinositol 3-phosphate 5-kinase (Homo sapiens), sequence (Q9Y2I7 whole entry): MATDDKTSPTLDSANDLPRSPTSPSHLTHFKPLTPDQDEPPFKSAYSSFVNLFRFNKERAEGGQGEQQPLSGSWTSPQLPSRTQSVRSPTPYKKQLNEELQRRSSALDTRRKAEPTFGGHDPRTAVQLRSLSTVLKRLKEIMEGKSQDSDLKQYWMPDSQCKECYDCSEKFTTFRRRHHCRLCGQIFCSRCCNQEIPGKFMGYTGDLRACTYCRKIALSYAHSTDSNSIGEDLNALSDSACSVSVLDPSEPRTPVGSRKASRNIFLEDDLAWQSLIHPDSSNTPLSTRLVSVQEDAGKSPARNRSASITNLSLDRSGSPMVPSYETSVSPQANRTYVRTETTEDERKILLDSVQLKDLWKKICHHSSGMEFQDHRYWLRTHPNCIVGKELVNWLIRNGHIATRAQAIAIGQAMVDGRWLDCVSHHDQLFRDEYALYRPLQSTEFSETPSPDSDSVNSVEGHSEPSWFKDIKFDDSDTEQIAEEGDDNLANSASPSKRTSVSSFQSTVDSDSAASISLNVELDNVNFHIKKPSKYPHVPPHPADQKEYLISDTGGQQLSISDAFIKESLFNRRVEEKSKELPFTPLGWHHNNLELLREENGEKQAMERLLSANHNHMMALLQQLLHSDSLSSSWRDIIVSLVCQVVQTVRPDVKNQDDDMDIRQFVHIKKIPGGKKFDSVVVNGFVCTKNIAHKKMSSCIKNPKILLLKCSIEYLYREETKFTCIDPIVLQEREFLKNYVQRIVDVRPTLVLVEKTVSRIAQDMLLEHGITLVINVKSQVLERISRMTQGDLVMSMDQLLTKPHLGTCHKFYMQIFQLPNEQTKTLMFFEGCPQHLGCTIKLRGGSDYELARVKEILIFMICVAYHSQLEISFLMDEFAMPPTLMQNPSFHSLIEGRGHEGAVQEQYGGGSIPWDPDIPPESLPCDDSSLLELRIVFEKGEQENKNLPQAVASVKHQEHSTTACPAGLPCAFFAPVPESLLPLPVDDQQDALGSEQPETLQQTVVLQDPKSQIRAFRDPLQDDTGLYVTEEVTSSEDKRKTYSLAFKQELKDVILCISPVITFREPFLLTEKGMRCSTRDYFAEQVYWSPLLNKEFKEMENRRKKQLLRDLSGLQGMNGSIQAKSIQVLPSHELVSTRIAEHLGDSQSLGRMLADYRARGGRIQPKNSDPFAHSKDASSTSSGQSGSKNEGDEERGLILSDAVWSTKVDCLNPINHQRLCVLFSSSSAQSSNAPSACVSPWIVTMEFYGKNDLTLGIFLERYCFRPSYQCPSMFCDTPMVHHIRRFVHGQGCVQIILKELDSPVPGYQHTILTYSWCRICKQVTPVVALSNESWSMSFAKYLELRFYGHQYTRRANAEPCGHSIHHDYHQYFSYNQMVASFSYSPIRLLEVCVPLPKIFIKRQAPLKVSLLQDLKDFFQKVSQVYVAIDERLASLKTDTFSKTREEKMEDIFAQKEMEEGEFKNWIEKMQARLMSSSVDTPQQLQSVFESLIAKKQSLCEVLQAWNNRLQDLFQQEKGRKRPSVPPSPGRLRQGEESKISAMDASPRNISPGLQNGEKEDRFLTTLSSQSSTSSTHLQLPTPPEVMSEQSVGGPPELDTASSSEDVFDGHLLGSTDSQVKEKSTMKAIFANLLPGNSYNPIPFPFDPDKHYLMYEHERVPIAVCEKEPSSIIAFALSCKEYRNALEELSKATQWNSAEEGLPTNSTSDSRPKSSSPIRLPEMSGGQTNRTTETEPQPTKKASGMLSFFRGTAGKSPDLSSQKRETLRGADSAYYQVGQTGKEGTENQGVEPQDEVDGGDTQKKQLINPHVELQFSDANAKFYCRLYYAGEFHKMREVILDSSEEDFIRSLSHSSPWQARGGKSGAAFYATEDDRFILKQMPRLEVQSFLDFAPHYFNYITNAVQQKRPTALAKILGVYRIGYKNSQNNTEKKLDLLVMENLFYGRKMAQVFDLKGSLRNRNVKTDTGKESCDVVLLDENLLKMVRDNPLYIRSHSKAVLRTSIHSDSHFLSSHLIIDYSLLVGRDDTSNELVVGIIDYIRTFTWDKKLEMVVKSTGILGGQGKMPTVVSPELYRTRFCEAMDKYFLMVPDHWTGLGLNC
NT-3 growth factor receptor, sequence (Q16288 32-839 limits assumed): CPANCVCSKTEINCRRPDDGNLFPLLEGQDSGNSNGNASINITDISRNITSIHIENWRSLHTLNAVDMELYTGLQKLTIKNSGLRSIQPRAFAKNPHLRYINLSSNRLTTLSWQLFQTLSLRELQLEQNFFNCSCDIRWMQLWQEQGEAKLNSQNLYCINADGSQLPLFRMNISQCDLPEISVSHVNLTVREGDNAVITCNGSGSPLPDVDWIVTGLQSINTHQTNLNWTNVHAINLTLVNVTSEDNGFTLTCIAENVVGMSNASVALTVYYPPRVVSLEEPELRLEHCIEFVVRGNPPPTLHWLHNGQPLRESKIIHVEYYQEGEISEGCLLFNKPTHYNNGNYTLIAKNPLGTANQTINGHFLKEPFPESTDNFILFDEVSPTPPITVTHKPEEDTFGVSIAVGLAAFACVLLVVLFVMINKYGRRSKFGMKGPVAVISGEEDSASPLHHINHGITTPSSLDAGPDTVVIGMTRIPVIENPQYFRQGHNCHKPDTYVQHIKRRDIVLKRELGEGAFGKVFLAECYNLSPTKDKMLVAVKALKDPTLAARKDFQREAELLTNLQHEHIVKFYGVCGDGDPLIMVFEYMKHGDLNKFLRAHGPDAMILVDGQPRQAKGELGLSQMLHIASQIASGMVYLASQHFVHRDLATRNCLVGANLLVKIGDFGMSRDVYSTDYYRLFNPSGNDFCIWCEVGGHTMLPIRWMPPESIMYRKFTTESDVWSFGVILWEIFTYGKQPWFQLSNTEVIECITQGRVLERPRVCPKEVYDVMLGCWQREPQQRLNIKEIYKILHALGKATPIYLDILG
Serine/threonine-protein kinase 26, sequence (Q9P289 2-416 limits assumed): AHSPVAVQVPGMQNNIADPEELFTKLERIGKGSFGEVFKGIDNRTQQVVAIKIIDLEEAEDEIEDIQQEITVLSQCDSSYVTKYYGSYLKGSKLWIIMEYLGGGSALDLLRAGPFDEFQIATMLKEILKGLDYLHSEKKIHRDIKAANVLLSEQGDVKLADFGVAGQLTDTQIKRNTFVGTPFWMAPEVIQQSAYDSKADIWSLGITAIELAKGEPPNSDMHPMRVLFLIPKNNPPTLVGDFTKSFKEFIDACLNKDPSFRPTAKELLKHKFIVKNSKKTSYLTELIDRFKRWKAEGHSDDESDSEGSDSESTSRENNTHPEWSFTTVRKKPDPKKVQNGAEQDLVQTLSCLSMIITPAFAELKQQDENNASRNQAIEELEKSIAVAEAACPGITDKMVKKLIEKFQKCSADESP
Phosphatidylinositol 4,5-bisphosphate 3-kinase catalytic subunit beta isoform (Homo sapiens), sequence (P42338 whole entry, looked up, canonical isoform): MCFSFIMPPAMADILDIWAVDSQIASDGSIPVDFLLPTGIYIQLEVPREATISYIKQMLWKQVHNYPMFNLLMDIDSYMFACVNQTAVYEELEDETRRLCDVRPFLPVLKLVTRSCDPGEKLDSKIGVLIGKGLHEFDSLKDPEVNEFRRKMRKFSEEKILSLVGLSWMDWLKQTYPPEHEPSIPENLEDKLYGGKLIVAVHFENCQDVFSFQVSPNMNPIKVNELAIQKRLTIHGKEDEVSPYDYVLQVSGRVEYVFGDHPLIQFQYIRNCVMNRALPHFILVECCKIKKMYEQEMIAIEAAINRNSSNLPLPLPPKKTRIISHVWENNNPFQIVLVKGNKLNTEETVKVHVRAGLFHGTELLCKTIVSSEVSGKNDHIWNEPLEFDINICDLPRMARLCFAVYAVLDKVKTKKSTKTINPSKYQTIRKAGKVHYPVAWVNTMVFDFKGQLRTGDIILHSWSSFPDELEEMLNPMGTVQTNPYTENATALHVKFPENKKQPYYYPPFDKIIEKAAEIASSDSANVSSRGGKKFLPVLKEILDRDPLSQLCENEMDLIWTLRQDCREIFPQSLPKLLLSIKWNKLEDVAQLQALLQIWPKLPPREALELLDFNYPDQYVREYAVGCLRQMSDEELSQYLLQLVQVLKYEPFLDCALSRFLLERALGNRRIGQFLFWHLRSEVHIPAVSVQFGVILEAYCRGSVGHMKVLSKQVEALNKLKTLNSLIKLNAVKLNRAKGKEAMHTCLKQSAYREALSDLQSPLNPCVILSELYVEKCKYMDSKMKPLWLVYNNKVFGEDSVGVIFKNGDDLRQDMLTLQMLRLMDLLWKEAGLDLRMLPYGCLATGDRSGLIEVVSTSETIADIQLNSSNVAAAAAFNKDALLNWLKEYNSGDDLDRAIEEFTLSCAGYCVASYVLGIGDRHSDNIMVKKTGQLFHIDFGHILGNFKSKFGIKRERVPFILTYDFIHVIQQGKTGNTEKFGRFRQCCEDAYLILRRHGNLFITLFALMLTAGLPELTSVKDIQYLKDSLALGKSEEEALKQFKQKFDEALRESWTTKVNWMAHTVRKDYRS
Dual specificity mitogen-activated protein kinase kinase 2 (Homo sapiens), sequence (P36507 whole entry): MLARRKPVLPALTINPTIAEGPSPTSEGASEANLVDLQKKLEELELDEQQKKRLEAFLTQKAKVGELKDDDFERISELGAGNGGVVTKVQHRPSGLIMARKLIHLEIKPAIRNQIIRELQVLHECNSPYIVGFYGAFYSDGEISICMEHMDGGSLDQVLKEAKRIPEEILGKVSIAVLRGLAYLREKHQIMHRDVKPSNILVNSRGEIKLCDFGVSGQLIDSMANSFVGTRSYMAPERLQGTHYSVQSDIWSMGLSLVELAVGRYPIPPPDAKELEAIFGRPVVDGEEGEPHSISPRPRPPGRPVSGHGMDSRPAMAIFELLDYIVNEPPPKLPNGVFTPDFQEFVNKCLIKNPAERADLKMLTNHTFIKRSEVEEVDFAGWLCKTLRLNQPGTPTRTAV

Cc1cc([C@@H](C)Nc2ccccc2C(=O)O)c2nc(N3CCOCC3)cc(=O)n2c1 [AZD-6482]
% of control [1]: 100%

CN(C)C/C=C/C(=O)Nc1ccc(C(=O)N2CCCC(Nc3ncc(Cl)c(-c4c[nH]c5ccccc45)n3)C2)cc1 (stereo not drawn)
% of control [2]: 94%

CC[C@@H]1[C@H](F)C(=O)N[C@@H]1COc1nccc2cc(C(N)=O)c(OC)cc12 [ZIMLOVISERTIB]
% of inhibition ([3]; at 0.01 µM): 11% | % of inhibition ([3]; at 0.04 µM): 8.8% | % of inhibition ([3]; at 0.2 µM): -0.1% | % of inhibition ([3]; at 1 µM): 21.3% | % of inhibition ([3]; at 5 µM): 29.2%

CN(C)CC#Cc1ccc2[nH]c3c(c2c1)-c1nc(N)ncc1CCC3
% of control [4]: 34%

CCN(CC)CCCCNc1ncc2cc(-c3cc(OC)cc(OC)c3)c(NC(=O)NC(C)(C)C)nc2n1
% of control [5]: 100%

COCC(=O)NC/C=C/c1ccc2ncnc(Nc3ccc(Oc4ccc(C)nc4)c(C)c3)c2c1 [CP-724714]
% of control [6]: 100% | % of control [7]: 81%

COc1cc(N(C)c2ccnc3ccc(C(F)(F)F)cc23)cc(OC)c1OC
% binding [8]: 78%

Nc1cnc(N2CCc3cc(S(=O)(=O)Nc4c(F)cc(Cl)cc4F)cc(N4CCCC4=O)c32)nc1 [TP-020n]
% of control [9]: 92%

C=CC(=O)Nc1cccc(C(=O)Nc2ccc(Nc3cc(-c4[nH]c(SC)nc4C)ccn3)cc2)c1
% of control ([10]; at 1 µM): 99% | % of control ([10]; at 5 µM): 79%

CCC(=O)N1CCN(c2ccc(-n3c(=O)ccc4cnc5ccc(-c6cnc7ccccc7c6)cc5c43)cc2C(F)(F)F)CC1
% of control [11]: 64%

C=CC(=O)Nc1cc(-n2c(=O)ccc3cnc4ccc(-c5ccc(NS(C)(=O)=O)cc5)cc4c32)ccc1C
% of control ([12]; at 1 µM): 100% | % of control ([12]; at 10 µM): 52%

N#Cc1cccc(-c2c[nH]c3ncnc(N4CCOCC4)c23)c1
% of control [13]: 79% | % of control [14]: 62% | % of inhibition [15]: 65%

O[C@H]1CC[C@H](Nc2ncc3nc(Nc4c(F)cc(F)cc4F)n([C@H]4CCOC4)c3n2)CC1
% of control [16]: 100% | % of control [17]: 91%
